Assay [1] has as its target Chymotrypsinogen A (Bos taurus) (UniProt P00766). The experiment in a line: Tested for inhibition of Chymotrypsinogen from bovine.
Assay [2] has the same target. The description is as above. This is another data set of the same source.

We go through 2 compounds from BindingDB's records for doi:10.1021/jm00172a005 (Kissei Pharmaceutical, 1990).

The structures appear in SMILES notation. Where only a bound is given, the exact number is not on record here.

One may read the IC50 as the midpoint of a concentration-inhibition curve. A low value points to inhibition by little substance. In the case of `CC(C)OC(=O)[C@H](O)[C@H](CC1CCCCC1)NC(=O)[C@H](Cc1c[nH]cn1)NC(=O)[C@@H](CC(=O)N1CCOCC1)Cc1cccc2ccccc12` [4-Cyclohexyl-2-hydroxy-3-[3-(1H-imidazol-4-yl)-2-(4-morpholin-4-yl-2-naphthalen-1-ylmethyl-4-oxo-butyrylamino)-propionylamino]-butyric acid isopropyl ester], the IC50 in assay [1] is > 100 µM.

With `CC(C)CC(=O)N[C@H](C(=O)N[C@H](C(=O)N[C@@H](CC(C)C)[C@@H](O)CC(=O)N[C@@H](C)C(=O)N[C@@H](CC(C)C)[C@@H](O)CC(=O)O)C(C)C)C(C)C` [PEPSTATIN], the IC50 in assay [2] was > 100 µM.
